Measured values reported in patent US20260015360A1 (MOMA Therapeutics, Inc., priority 2023, published 2026).
Read-outs that look alike come from different tables or passages of the source.

Columns and labels:
DLD1 BRCA2 (−/−) cells = experiment: DLD1 viability assay (CellTiter-Glo, 7 days), DLD1 BRCA2 (−/−); assay type: cell-based; conditions: read-out: Viability IC50 (μM) DLD1 BRCA2 null
Experimental: (§1) The seeding densities are pre-determined from the growth curve kinetics performed to ensure log linear phase of cell growth for these 2 cell lines. These assay plates are then placed in the incubator at 37° C., 5% CO2, relative humidity>90% for a few hours before addition of test compounds. Compounds are dispensed using the Tecan HPD300 or Echo based on the plate map in the appropriate wells of the 384-well plates. […] After addition of the test compounds, the plates are incubated at 37° C., 5% CO2, relative humidity>90% for 7 days. CellTiter-Glo (Promega Cat. No. G7573), ATP detection reagent is prepared according to manufacturer's specifications. Cell assay plates are removed from incubator and bring to room temperature (RT) by letting them sit at bench top for at least 15 min. Using the MultiDrop liquid handler or a multichannel pipette, 35 μL/well of CTG is added and the plates are then placed shakes for 5 seconds, RT. These plates are then incubated for 30 minutes in the dark at RT before measuring luminescence using Spectramax/Enspire/Ensight/Envision/PheraSTAR.

DLD1 WT cells = experiment: DLD1 viability assay (CellTiter-Glo, 7 days), DLD1 WT; assay type: cell-based
Experimental: as §1

| IC50 (DLD1 BRCA2 (−/−) cells; Homo sapiens, DLD-1, 168 h) [µM] | IC50 (DLD1 WT cells; Homo sapiens, DLD-1, 168 h) [µM] | IC50 (DLD1 BRCA2 (−/−) cells) [µM] | IC50 (DLD1 WT cells) [µM] | Compound |
| --- | --- | --- | --- | --- |
| 0.1 to 0.25 | > 10 |  |  | COc1cnc(Cl)cc1-c1cc(C)ncc1C(=O)Nc1nc2ncc(N3CC[C@](C)(OC)[C@H](F)C3)nc2s1 (single isomer, unassigned) [Example 362, 2′-chloro-N-(6-((3R or S,4S or R)-3-fluoro-4-methoxy-4-methylpiperidin-1-yl)thiazolo[4,5-b]pyrazin-2-yl)-5′-methoxy-6-methyl-[4,4′-bipyridine]-3-carboxamide] |
| 0.1 to 0.25 | > 10 |  |  | COc1cnc(Cl)cc1-c1cc(C)ncc1C(=O)Nc1nc2ncc([C@H]3CCN(CC(F)(F)F)C3)nc2s1 (single isomer, unassigned) [Example 364, (S or R)-2′-chloro-5′-methoxy-6-methyl-N-(6-(1-(2,2,2-trifluoroethyl)pyrrolidin-3-yl)thiazolo[4,5-b]pyrazin-2-yl)-[4,4′-bipyridine]-3-carboxamide] |
| 0.001 to 0.1 | > 10 |  |  | COc1cnc(Cl)cc1-c1cc(C)ncc1C(=O)Nc1nc2ncc([C@@H]3CCN(CC(F)(F)F)C3)nc2s1 (single isomer, unassigned) [Example 365, (R or S)-2′-chloro-5′-methoxy-6-methyl-N-(6-(1-(2,2,2-trifluoroethyl)pyrrolidin-3-yl)thiazolo[4,5-b]pyrazin-2-yl)-[4,4′-bipyridine]-3-carboxamide] |
| 0.001 to 0.1 | > 10 |  |  | COc1cnc(Cl)cc1-c1cc(C)ncc1C(=O)Nc1nc2ncc(N3CC[C@](C)(O)[C@H](F)C3)nc2s1 (single isomer, unassigned) [Example 375, 2′-chloro-N-(6-((3R or S,4S or R)-3-fluoro-4-hydroxy-4-methylpiperidin-1-yl)thiazolo[4,5-b]pyrazin-2-yl)-5′-methoxy-6-methyl-[4,4′-bipyridine]-3-carboxamide] |
| 0.001 to 0.1 | > 10 |  |  | COc1cnc(Cl)cc1-c1cc(C)ncc1C(=O)Nc1nc2ncc(N3CC[C@@](C)(O)[C@@H](F)C3)nc2s1 (single isomer, unassigned) [Example 376, 2′-chloro-N-(6-((3S or R,4R or S)-3-fluoro-4-hydroxy-4-methylpiperidin-1-yl)thiazolo[4,5-b]pyrazin-2-yl)-5′-methoxy-6-methyl-[4,4′-bipyridine]-3-carboxamide] |
| 0.001 to 0.1 | > 10 |  |  | COc1cnc(Cl)cc1-c1cc(C)ncc1C(=O)Nc1nc2ncc(C3CN(CC(F)(F)F)C3)nc2s1 (single isomer, unassigned) [Example 378, 2′-chloro-5′-methoxy-6-methyl-N-(6-(1-(2,2,2-trifluoroethyl)azetidin-3-yl)thiazolo[4,5-b]pyrazin-2-yl)-[4,4′-bipyridine]-3-carboxamide] |
| 0.001 to 0.1 | > 10 |  |  | COc1cnc(Cl)cc1-c1cc(C)ncc1C(=O)Nc1nc2ncc([C@H]3CCOC(C)(C)C3)nc2s1 (single isomer, unassigned) [Example 379, (S or R)-2′-chloro-N-(6-(2,2-dimethyltetrahydro-2H-pyran-4-yl)thiazolo[4,5-b]pyrazin-2-yl)-5′-methoxy-6-methyl-[4,4′-bipyridine]-3-carboxamide] |
| 0.001 to 0.1 | > 10 |  |  | COc1cnc(Cl)cc1-c1cc(C)ncc1C(=O)Nc1nc2ncc([C@@H]3CCOC(C)(C)C3)nc2s1 (single isomer, unassigned) [Example 382, (R or S)-2′-chloro-N-(6-(2,2-dimethyltetrahydro-2H-pyran-4-yl)thiazolo[4,5-b]pyrazin-2-yl)-5′-methoxy-6-methyl-[4,4′-bipyridine]-3-carboxamide] |
| 0.001 to 0.1 | > 10 |  |  | COc1cnc(Cl)cc1-c1cc(C)ncc1C(=O)Nc1nc2ncc(N3CCO[C@H](C)[C@@H]3C)nc2s1 (single isomer, unassigned) [Example 400, 2′-chloro-N-(6-((2R or S,3S or R)-2,3-dimethylmorpholino)thiazolo [4,5-b]pyrazin-2-yl)-5′-methoxy-6-methyl-[4,4′-bipyridine]-3-carboxamide] |
| 0.001 to 0.1 | > 10 |  |  | COc1cnc(Cl)cc1-c1cc(C)ncc1C(=O)Nc1nc2ncc(C3=CCC(O)(C(F)(F)F)CC3)nc2s1 (single isomer, unassigned) [Example 413, 2′-chloro-N-(6-(4-hydroxy-4-(trifluoromethyl)cyclohex-1-en-1-yl)thiazolo[4,5-b]pyrazin-2-yl)-5′-methoxy-6-methyl-[4,4′-bipyridine]-3-carboxamide] |
| 0.001 to 0.1 | > 10 |  |  | COc1cnc(Cl)cc1-c1cc(C)ncc1C(=O)Nc1nc2ncc([C@H]3CCO[C@H](C)C3)nc2s1 (single isomer, unassigned) [Example 431, 2′-chloro-5′-methoxy-6-methyl-N-(6-((2R or S,4S or R)-2-methyltetrahydro-2H-pyran-4-yl)thiazolo[4,5-b]pyrazin-2-yl)-[4,4′-bipyridine]-3-carboxamide] |
| 0.001 to 0.1 | > 10 |  |  | COc1cnc(Cl)cc1-c1cc(C)ncc1C(=O)Nc1nc2ncc([C@H]3CCO[C@@H](C)C3)nc2s1 (single isomer, unassigned) [Example 434A, 2′-chloro-5′-methoxy-6-methyl-N-(6-((2S or R,4S or R)-2-methyltetrahydro-2H-pyran-4-yl)thiazolo[4,5-b]pyrazin-2-yl)-[4,4′-bipyridine]-3-carboxamide] |
| 0.001 to 0.1 | > 10 |  |  | COc1cnc(Cl)cc1-c1cc(C)ncc1C(=O)Nc1nc2ncc([C@@H]3CCO[C@H](C)C3)nc2s1 (single isomer, unassigned) [Example 435, 2′-chloro-5′-methoxy-6-methyl-N-(6-((2R or S,4R or S)-2-methyltetrahydro-2H-pyran-4-yl)thiazolo[4,5-b]pyrazin-2-yl)-[4,4′-bipyridine]-3-carboxamide] |
| 0.001 to 0.1 | 0.001 to 2.5 |  |  | COc1cnc(Cl)cc1-c1cc(C)ncc1C(=O)Nc1nc2ncc(N3CC[C@H](OC)C(F)(F)C3)nc2s1 (single isomer, unassigned) [Example 441, (S or R)-2′-chloro-N-(6-(3,3-difluoro-4-methoxypiperidin-1-yl)thiazolo[4,5-b]pyrazin-2-yl)-5′-methoxy-6-methyl-[4,4′-bipyridine]-3-carboxamide] |
| 0.001 to 0.1 | > 10 |  |  | COc1cnc(Cl)cc1-c1cc(C)ncc1C(=O)Nc1nc2ncc(N3CCC(OC)C(F)(F)C3)nc2s1 (single isomer, unassigned) [Example 444, (R or S)-2′-chloro-N-(6-(3,3-difluoro-4-methoxypiperidin-1-yl)thiazolo[4,5-b]pyrazin-2-yl)-5′-methoxy-6-methyl-[4,4′-bipyridine]-3-carboxamide] |
|  | > 10 | 0.1 to 0.25 |  | COc1cnc(Cl)cc1-c1cc(C)ncc1C(=O)Nc1nc2ncc(N3CCC(O)C(F)(F)C3)nc2s1 (single isomer, unassigned) [Example 457, (S or R)-2′-chloro-N-(6-(3,3-difluoro-4-hydroxypiperidin-1-yl)thiazolo[4,5-b]pyrazin-2-yl)-5′-methoxy-6-methyl-[4,4′-bipyridine]-3-carboxamide] |
|  |  | 0.001 to 0.1 | > 10 | COc1cnc(Cl)cc1-c1cc(C)ncc1C(=O)Nc1nc2ncc(N3CCC(O)C(F)(F)C3)nc2s1 (single isomer, unassigned) [Example 458, (R or S)-2′-chloro-N-(6-(3,3-difluoro-4-hydroxypiperidin-1-yl)thiazolo[4,5-b]pyrazin-2-yl)-5′-methoxy-6-methyl-[4,4′-bipyridine]-3-carboxamide] |
| 0.5 to 2 | 7.5 to 10 |  |  | COc1ccccc1-c1cc(C)ncc1C(=O)Nc1nc2ccc(N3CCCCC3)cc2s1 [Example 91, 4-(2-Methoxyphenyl)-6-methyl-N-(6-(piperidin-1-yl)benzo[d]thiazol-2-yl)nicotinamide] |
| 0.1 to 0.25 | > 10 |  |  | COc1nnc(C(F)F)cc1-c1cc(C)ncc1C(=O)Nc1nc2ncc(-c3ccnc(C)c3)nc2s1 [Example 384, 4-(6-(difluoromethyl)-3-methoxypyridazin-4-yl)-6-methyl-N-(6-(2-methylpyridin-4-yl)thiazolo[4,5-b]pyrazin-2-yl)nicotinamide] |
| 0.001 to 0.1 | > 10 |  |  | COc1cnc(Cl)cc1-c1cc(C)ncc1C(=O)Nc1nc2ncc(C3=CCC(OC)(C(F)F)CC3)nc2s1 (centres unmarked) [Example 388, 2′-chloro-N-(6-(4-(difluoromethyl)-4-methoxycyclohex-1-en-1-yl)thiazolo[4,5-b]pyrazin-2-yl)-5′-methoxy-6-methyl-[4,4′-bipyridine]-3-carboxamide] |
| 0.001 to 0.1 | > 10 |  |  | COc1cnc(Cl)cc1-c1cc(C)ncc1C(=O)Nc1nc2ncc(C3CCOC(C)(C)C3)nc2s1 (centres unmarked) [Example 389, 2′-chloro-N-(6-(2,2-dimethyltetrahydro-2H-pyran-4-yl)thiazolo[4,5-b]pyrazin-2-yl)-5′-methoxy-6-methyl-[4,4′-bipyridine]-3-carboxamide] |

| Compound | IC50 (DLD1 BRCA2 (−/−) cells; Homo sapiens, DLD-1, 168 h) [µM] | IC50 (DLD1 WT cells; Homo sapiens, DLD-1, 168 h) [µM] | IC50 (DLD1 BRCA2 (−/−) cells) [µM] | IC50 (DLD1 WT cells) [µM] |
| --- | --- | --- | --- | --- |
| COc1cnc(Cl)cc1-c1cc(C)ncc1C(=O)Nc1nc2ncc(C3CCC(OC)(C(F)F)CC3)nc2s1 (centres unmarked) [Example 383, 2′-chloro-N-(6-(4-(difluoromethyl)-4-methoxycyclohexyl)thiazolo [4,5-b]pyrazin-2-yl)-5′-methoxy-6-methyl-[4,4′-bipyridine]-3-carboxamide] | 0.001 to 0.1 | > 10 |  |  |
